# Measurements published in patent US20170007675A1, “STABLE PEPTIDE FORMULATIONS AND METHODS FOR PREPARATION” (XERIS PHARMACEUTICALS, INC., priority 2014, published 2017).
# Conditions: 0.9 mg/mL in neat DMSO; 40° C.; six weeks; N=3
# Procedure: Sample solutions (N=3) were prepared by solubilizing the lyophilized powder directly in neat DMSO to a concentration of 0.9 mg/mL pramlintide acetate. To test formulation stability in the polar aprotic solvent, the samples (N=3) were stored in sealed glass vials at 40° C. for six weeks.
substance,measurement,value
Pramlintide acetate,appearance of sample solutions after storage,clear and absent of precipitation and visible aggregates
